“Also recorded” adds a separate entry of the source.
Tests used:
HepG2 cells [1] = experiment: Fibrinogen secretion by HepG2 cells (ELISA of media); type: cell-based, human; settings: for inhibition of IL-6 induced fibrinogen secretion: IL-1β 10 ng/ml, insulin 1 μM; for fibrinogen secretion in media in which one amino acid was omitted: named amino acid omitted, isonitrogenously compensated with the other amino acids
Experimental: (§1) The effects of either the amino acid concentration or the amino acid composition on the acute-phase protein response in a human hepatocellular cell line (HepG2 cell) were studied. As model components, the production of fibrinogen and albumin were studied.
(§2) Cell culture: Human hepatoma HepG2 cells (ATCC HB-8065) were maintained in DMEM supplemented with 10% heat inactivated fetal calf serum (Life Technologies) with 2 mM glutamine and streptomycin/penicillin in Costar T75 flasks at 37° C. in a humidified atmosphere of 95% air-5% CO2. For experiments HepG2 cells were incubated in RPMI-1640 media without fetal calf serum. All experiments were carried out in 6 wells plates.
(§3) Incubations: HepG2 cells were grown in 6 wells plates to confluence, washed with DMEM ([…]) and subsequently incubated during 24-h with IL-6 and the custom media (RPMI-1640; RPMI-1640 select amino kit Gibco BRL). After the incubations, the media were collected and stored at −20° C. until analysis. The cells were then washed with phosphate-buffered saline (PBS) and lysed with 0.1M NaOH. The protein content was determined using the Bio-Rad Protein assay (Dye Reagent Concentrate, Bio-Rad Laboratories, Inc., Hercules Calif., USA) using bovine albumin (Sigma Aldrich) as standard. The data are presented as μg acute-phase protein in the supernatant per milligram protein cell content.
(§4) Antibodies: Rabbit anti-human fibrinogen and horseradish peroxidase (HRP)—conjugated rabbit anti-human fibrinogen were obtained from DakoCytomation (Denmark A/S, Glostrup, Denmark), anti-human albumin, HRP-conjugated anti-human albumin were obtained from Dade Behring B.V. (Leusden, the Netherlands).
(§5) ELISAs: Albumin and fibrinogen: 96-well flat-bottom Costar EIA/RIA plates were coated overnight with primary antibody in PBS at predetermined optimal concentration. After each incubation step, the plates were washed with 0.1% Tween-20 (Merck Eurolab B.V., Roden, the Netherlands) in PBS. After washing, the plates were blocked with 5% Protifar (Nutricia B.V., Zoetermeer, the Netherlands) in PBS during 90 min. Subsequently, the samples and antigen were incubated in 0.1% Tween-20 in PBS during 90 min. Next, the plates were incubated with HRP-conjugated antibodies in 0.1% Tween-20 in PBS during 90 min. The colorimetric reaction was carried out with undiluted 1-Step Ultra TMB-ELISA (Pierce, Rockland, Ill., USA). The reaction was stopped with 2 M sulphuric acid. The absorbances of the samples were measured at λ=450 nm.

HepG2 cells [2] = experiment: Albumin secretion by HepG2 cells (ELISA of media); type: cell-based, human; settings: for albumin secretion in media in which one amino acid was omitted: named amino acid omitted, isonitrogenously compensated with the other amino acids
Experimental: as §1, §2, §3, §4, §5

[3] = added in combination with IL-6 10 ng/ml, n=6

Compound	albumin secretion in media in which one amino acid was omitted (HepG2 cells [2])	fibrinogen secretion in media in which one amino acid was omitted (HepG2 cells [1])	other results
insulin [reference compound]			inhibition of IL-6 induced fibrinogen secretion (HepG2 cells [1]; [3]): 50%
N[C@@H](CS)C(=O)O [cysteine]	significantly decreased; also recorded: significantly inhibited	significantly decreased; also recorded: significantly inhibited	
IL-6: Human IL-6 obtained from Sigma Aldrich [reference compound]			albumin secretion (excretion) from HepG2 cells (HepG2 cells [2]; incubation with IL-6 or other cytokines/hormones, 24-h, n=6): no significant effects; also recorded: no effect; fibrinogen secretion (excretion) from HepG2 cells (HepG2 cells [1]; incubation with IL-6, range 1-10 ng/ml, 24-h, n=6): concentration-dependent relationship; also recorded: significantly induces
N=C(N)NCCC[C@H](N)C(=O)O [Arg, arginine]	significantly decreased; also recorded: significantly inhibited	significantly decreased; also recorded: significantly inhibited	
IL-1β: cytokine, used at 10 ng/ml [reference compound]			inhibition of IL-6 induced fibrinogen secretion (HepG2 cells [1]; [3]): approximately 25%
N[C@@H](CO)C(=O)O [Ser, serine]	significantly decreased; also recorded: significantly inhibited	significantly decreased; also recorded: significantly inhibited	
C[C@@H]1C[C@H]2[C@@H]3CCC4=CC(=O)C=C[C@]4(C)[C@@]3(F)[C@@H](O)C[C@]2(C)[C@@]1(O)C(=O)CO [dexamethasone, reference compound]			enhancing effect on IL-6 induced fibrinogen secretion (HepG2 cells [1]; added in combination with IL-6 10 ng/ml, dexamethasone 1 μM, n=6): 20%

— US20120252723A1, “Regulating the Amino Acid Pool Used for the Acute-Phase Protein Synthesis” (N.V. Nutricia, priority 2009, published 2012)
